The values below come from patent US8759361B2, “2-phenoxy pyrimidinone analogues” (Neurogen Corporation, priority 2006, dated 2014).

Read-outs that look alike come from different tables or passages of the source.

This assay has as its target T1, human capsaicin receptor (Homo sapiens, UniProt Q8NER1).
T1 construct: expressed in transfected cells
Kind of assay: Calcium mobilization assay, determination of antagonist activity (Example 6). It is filed as cell-based. Particulars: cells expressing human capsaicin receptor, capsaicin-induced fluorescence response. On the procedure:
A cDNA encoding full length human capsaicin receptor (SEQ ID NO:1, 2 or 3 of U.S. Pat. No. 6,482,611) is subcloned in the plasmid pBK-CMV (Stratagene, La Jolla, Calif.) for recombinant expression in mammalian cells.
Human embryonic kidney (HEK293) cells are transfected with the pBK-CMV expression construct encoding the full length human capsaicin receptor using standard methods. The transfected cells are selected for two weeks in media containing G418 (400 μg/ml) to obtain a pool of stably transfected cells. Independent clones are isolated from this pool by limiting dilution to obtain clonal stable cell lines for use in subsequent experiments.
Cells transfected with expression plasmids (as described in Example 4) and thereby expressing human capsaicin receptor are seeded and grown to 70-90% confluency in FALCON black-walled, clear-bottomed 96-well plates (#3904, BECTON-DICKINSON, Franklin Lakes, N.J.). The culture medium is emptied from the 96 well plates and FLUO-3 AM calcium sensitive dye (Molecular Probes, Eugene, Oreg.) is added to each well (dye solution: 1 mg FLUO-3 AM, 440 μL DMSO and 440 μl 20% pluronic acid in DMSO, diluted 1:250 in Krebs-Ringer HEPES (KRH) buffer (25 mM HEPES, 5 mM KCl, 0.96 mM NaH2PO4, 1 mM MgSO4, 2 mM CaCl2, 5 mM glucose, 1 mM probenecid, pH 7.4), 50 μl diluted solution per well). Plates are covered with aluminum foil and incubated at 37° C. for 1-2 hours in an environment containing 5% CO2. After the incubation, the dye is emptied from the plates, and the cells are washed once with KRH buffer, and resuspended in KRH buffer.
To measure the ability of a test compound to agonize or antagonize a calcium mobilization response in cells expressing capsaicin receptors to capsaicin or other vanilloid agonist, the EC50 of the agonist capsaicin is first determined. An additional 20 μl of KRH buffer and 1 μl DMSO is added to each well of cells, prepared as described above. 100 μl capsaicin in KRH buffer is automatically transferred by the FLIPR instrument to each well. Capsaicin-induced calcium mobilization is monitored using either FLUOROSKAN ASCENT (Labsystems; Franklin, Mass.) or FLIPR (fluorometric imaging plate reader system; Molecular Devices, Sunnyvale, Calif.) instruments. Data obtained between 30 and 60 seconds after agonist application are used to generate an 8-point concentration response curve, with final capsaicin concentrations of 1 nM to 3 μM. KALEIDAGRAPH software (Synergy Software, Reading, Pa.) is used to fit the data to the equation: y=a*(1/(1+(b/x)^c)) to determine the 50% excitatory concentration (EC50) for the response. In this equation, y is the maximum fluorescence signal, x is the concentration of the agonist or antagonist (in this case, capsaicin), a is the Emax, b corresponds to the EC50 value and c is the Hill coefficient. Determination of Agonist Activity
Test compounds are dissolved in DMSO, diluted in 20 μl KRH buffer so that the final concentration of test compounds in the assay well is between 1 μM and 5 μM, and added to cells prepared as described above. The 96 well plates containing prepared cells and test compounds are incubated in the dark, at room temperature for 0.5 to 6 hours. It is important that the incubation not continue beyond 6 hours. Just prior to determining the fluorescence response, 100 μl capsaicin in KRH buffer at twice the EC50 concentration determined as described above is automatically added by the FLIPR instrument to each well of the 96 well plate for a final sample volume of 200 μl and a final capsaicin concentration equal to the EC50. The final concentration of test compounds in the assay wells is between 1 μM and 5 μM. […] The concentration of antagonist required to provide a 50% decrease, relative to the response observed in the presence of capsaicin and without antagonist, is the IC50 for the antagonist, and is preferably below 1 micromolar, 100 nanomolar, 10 nanomolar or 1 nanomolar.
For orientation: Calcium flux is commonly read through the fluorescence of an indicator in the cells.

Setting [1] is: read-out: IC50 determined as described in Example 6.

T1 sequence (Q8NER1 whole entry): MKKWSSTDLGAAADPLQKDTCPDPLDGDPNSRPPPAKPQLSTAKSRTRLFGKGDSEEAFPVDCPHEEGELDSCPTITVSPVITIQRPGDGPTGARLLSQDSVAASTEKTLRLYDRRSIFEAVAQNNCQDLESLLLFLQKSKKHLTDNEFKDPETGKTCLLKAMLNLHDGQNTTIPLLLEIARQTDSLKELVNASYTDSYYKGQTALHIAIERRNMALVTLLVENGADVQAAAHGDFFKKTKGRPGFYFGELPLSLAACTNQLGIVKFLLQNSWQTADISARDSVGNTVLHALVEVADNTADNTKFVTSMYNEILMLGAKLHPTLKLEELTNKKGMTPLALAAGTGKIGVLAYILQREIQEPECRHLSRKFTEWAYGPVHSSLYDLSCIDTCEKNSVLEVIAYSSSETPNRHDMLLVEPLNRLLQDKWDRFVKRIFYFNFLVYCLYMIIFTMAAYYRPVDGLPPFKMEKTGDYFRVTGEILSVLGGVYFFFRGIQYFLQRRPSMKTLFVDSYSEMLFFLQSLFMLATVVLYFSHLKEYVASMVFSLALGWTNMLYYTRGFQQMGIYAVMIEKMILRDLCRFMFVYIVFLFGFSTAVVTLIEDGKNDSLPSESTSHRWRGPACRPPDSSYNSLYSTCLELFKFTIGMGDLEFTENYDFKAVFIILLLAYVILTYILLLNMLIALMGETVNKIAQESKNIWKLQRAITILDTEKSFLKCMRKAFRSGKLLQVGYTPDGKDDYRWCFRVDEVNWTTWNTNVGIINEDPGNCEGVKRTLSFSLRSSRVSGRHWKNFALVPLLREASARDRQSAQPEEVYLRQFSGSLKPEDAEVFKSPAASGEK

With `Cc1csc2c(=O)n(-c3ccc(F)cc3)c(Oc3c(F)ccc(F)c3F)nc12` [Compound 55, 3-(4-fluorophenyl)-7-methyl-2-(2,3,6-trifluorophenoxy)thieno[3,2-d]pyrimidin-4(3H)-one], the IC50 (as a rule, the point on the concentration scale where inhibition reaches its midpoint) (read-out: IC50) is at most 100 nM.

In the case of `Cn1cnc2c(=O)n(-c3ccc(F)cc3)c(Oc3cccc(C(F)(F)F)c3)nc21` [Compound 48, 1-(4-fluorophenyl)-9-methyl-2-[3-(trifluoromethyl)phenoxy]-1,9-dihydro-6H-purin-6-one], for the setting “read-out: IC50”, the IC50 is at most 100 nM.

With `Cc1csc2c(=O)n(-c3ccc(Cl)cc3)c(Oc3ccc(Cl)cc3F)nc12` [Compound 51, 2-(4-chloro-2-fluorophenoxy)-3-(4-chlorophenyl)-7-methylthieno[3,2-d]pyrimidin-4(3H)-one], the IC50 (read-out: IC50) is at most 100 nM.

In the case of `Cn1cnc2c(=O)n(-c3ccc(F)cc3)c(Oc3ccc(C#N)c(F)c3F)nc21` [Compound 29, 2,3-difluoro-4-{[1-(4-fluorophenyl)-9-methyl-6-oxo-6,9-dihydro-1H-purin-2-yl]oxy}benzonitrile], the IC50 (read-out: IC50) was at most 100 nM.

Regarding `O=c1c2ncsc2nc(Oc2cc(F)c(F)cc2F)n1-c1ccc(F)cc1` [Compound 35, 6-(4-fluorophenyl)-5-(2,4,5-trifluorophenoxy)[1,3]thiazolo[5,4-d]pyrimidin-7(6H)-one], the IC50 (read-out: IC50) is at most 100 nM.

For the compound `Cn1cnc2c(=O)n(-c3ccc(Cl)cc3)c(Oc3c(F)ccc(F)c3F)nc21` [Compound 25, 1-(4-chlorophenyl)-9-methyl-2-(2,3,6-trifluorophenoxy)-1,9-dihydro-6H-purin-6-one], the concentration for half-maximal inhibition (IC50) (read-out: IC50) is at most 100 nM.

For the compound `O=c1c2ncsc2nc(Oc2cc(F)cc(F)c2F)n1-c1ccc(F)cc1` [Compound 36, 6-(4-fluorophenyl)-5-(2,3,5-trifluorophenoxy)[1,3]thiazolo[5,4-d]pyrimidin-7(6H)-one], where the note is “read-out: IC50”, the IC50 was at most 100 nM.

For `Cc1csc2c(=O)n(-c3ccc(Cl)cc3)c(Oc3ccc(F)c(F)c3F)nc12` [Compound 50, 3-(4-chlorophenyl)-7-methyl-2-(2,3,4-trifluorophenoxy)thieno[3,2-d]pyrimidin-4(3H)-one], where the note is “read-out: IC50”, the IC50 is at most 100 nM.

Take `O=c1c2ncsc2nc(Oc2ccc(Cl)cc2F)n1-c1ccc(F)cc1` [Compound 38, 5-(4-chloro-2-fluorophenoxy)-6-(4-fluorophenyl)[1,3]thiazolo[5,4-d]pyrimidin-7(6H)-one]: for the setting “read-out: IC50”, the IC50 is at most 100 nM.

For the compound `Cn1cnc2c(=O)n(-c3ccc(Cl)cc3)c(Oc3cc(F)cc(F)c3F)nc21` [Compound 27, 1-(4-chlorophenyl)-9-methyl-2-(2,3,5-trifluorophenoxy)-1,9-dihydro-6H-purin-6-one], the IC50 (read-out: IC50) was at most 100 nM.

`Cn1cnc2c(=O)n(-c3ccc(Cl)cc3)c(Oc3ccc(C#N)c(F)c3F)nc21` [Compound 28, 4-{[1-(4-chlorophenyl)-9-methyl-6-oxo-6,9-dihydro-1H-purin-2-yl]oxy}-2,3-difluorobenzonitrile]: the IC50 (read-out: IC50) is at most 100 nM.

As to `Cn1cnc2c(=O)n(-c3ccc(Cl)cc3)c(Oc3c(F)cc(F)cc3F)nc21` [Compound 8, 1-(4-chlorophenyl)-9-methyl-2-(2,4,6-trifluorophenoxy)-1,9-dihydro-6H-purin-6-one], under “read-out: IC50”, the IC50 is at most 100 nM.

Take `Cc1csc2c(=O)n(-c3ccc(F)cc3)c(Oc3ccc(Cl)cc3F)nc12` [Compound 54, 2-(4-chloro-2-fluorophenoxy)-3-(4-fluorophenyl)-7-methylthieno[3,2-d]pyrimidin-4(3H)-one]: the IC50 (read-out: IC50) is at most 100 nM.

With `Cn1cnc2c(=O)n(-c3ccc(F)cc3)c(Oc3cccc(C(F)(F)F)c3F)nc21` [Compound 43, 1-(4-fluorophenyl)-2-[2-fluoro-3-(trifluoromethyl)phenoxy]-9-methyl-1,9-dihydro-6H-purin-6-one], where the note is “read-out: IC50”, the IC50 was at most 100 nM.

Regarding `Cn1cnc2c(=O)n(-c3ccc(F)cc3)c(Oc3cc(F)cc(C(F)(F)F)c3)nc21` [Compound 49, 1-(4-fluorophenyl)-2-[3-fluoro-5-(trifluoromethyl)phenoxy]-9-methyl-1,9-dihydro-6H-purin-6-one], the IC50 (read-out: IC50) was at most 100 nM.

Take `O=c1c2ncsc2nc(Oc2cc(F)c(F)c(F)c2)n1-c1ccc(F)cc1` [Compound 37, 6-(4-fluorophenyl)-5-(3,4,5-trifluorophenoxy)[1,3]thiazolo[5,4-d]pyrimidin-7(6H)-one]: the IC50 (read-out: IC50) is at most 100 nM.

Turning to `Cn1cnc2c(=O)n(-c3ccc(Cl)cc3)c(Oc3ccc(F)cc3Cl)nc21` [Compound 23, 2-(2-chloro-4-fluorophenoxy)-1-(4-chlorophenyl)-9-methyl-1,9-dihydro-6H-purin-6-one], the IC50 (read-out: IC50) was at most 100 nM.

As for `Cn1cnc2c(=O)n(-c3ccc(Cl)nc3)c(Oc3cc(F)c(F)c(F)c3)nc21` [Compound 6, 1-(6-Chloropyridin-3-yl)-9-methyl-2-(3,4,5-trifluorophenoxy)-1H-purin-6(9H)-one], under setting [1], the IC50 is at most 100 nM.

For the compound `Cc1csc2c(=O)n(-c3ccc(Cl)cc3)c(Oc3ccc(F)cc3F)nc12` [Compound 52, 3-(4-chlorophenyl)-2-(2,4-difluorophenoxy)-7-methylthieno[3,2-d]pyrimidin-4(3H)-one], the IC50 (read-out: IC50) is at most 100 nM.

Consider `Cn1cnc2c(=O)n(-c3ccc(C#N)nc3)c(Oc3cc(F)c(F)c(F)c3)nc21` [Compound 7, 5-(9-Methyl-6-oxo-2-(3,4,5-trifluorophenoxy)-6H-purin-1(9H)-yl)picolinonitrile], for which the IC50 under setting [1] was at most 100 nM.

Turning to `Cn1cnc2c(=O)n(-c3ccc(Cl)cc3)c(Oc3ccc(F)c(F)c3F)nc21` [Compound 10, 1-(4-chlorophenyl)-9-methyl-2-(2,3,4-trifluorophenoxy)-1,9-dihydro-6H-purin-6-one], the IC50 (read-out: IC50) is at most 100 nM.

For the compound `O=c1c2ncccc2nc(Oc2ccc(F)c(F)c2F)n1-c1ccc(F)cc1` [Compound 32, 3-(4-fluorophenyl)-2-(2,3,4-trifluorophenoxy)pyrido[3,2-d]pyrimidin-4(3H)-one], the IC50 (read-out: IC50) was at most 100 nM.

Regarding `CCn1cnc2c(=O)n(-c3ccc(F)cc3)c(Oc3cc(F)cc(F)c3F)nc21` [Compound 26, 9-ethyl-1-(4-fluorophenyl)-2-(2,3,5-trifluorophenoxy)-1,9-dihydro-6H-purin-6-one], the IC50 (read-out: IC50) is at most 100 nM.

Turning to `Cn1cnc2c(=O)n(-c3ccc(F)cc3)c(Oc3ccc(F)cc3Cl)nc21` [Compound 22, 2-(2-chloro-4-fluorophenoxy)-1-(4-fluorophenyl)-9-methyl-1,9-dihydro-6H-purin-6-one], the IC50 (read-out: IC50) is at most 100 nM.

Consider `O=c1c2ncsc2nc(Oc2ccc(F)c(F)c2F)n1-c1ccc(F)cc1` [Compound 33, 6-(4-fluorophenyl)-5-(2,3,4-trifluorophenoxy)[1,3]thiazolo[5,4-d]pyrimidin-7(6H)-one], for which the IC50 (read-out: IC50) was at most 100 nM.

On to `Cn1cnc2c(=O)n(-c3ccc(Cl)cc3)c(Oc3cccc(F)c3F)nc21` [Compound 21, 1-(4-chlorophenyl)-2-(2,3-difluorophenoxy)-9-methyl-1,9-dihydro-6H-purin-6-one], for which, under “read-out: IC50”, the IC50 is at most 100 nM.

For the compound `O=c1c2ncsc2nc(Oc2cccc(C(F)(F)F)c2)n1-c1ccc(F)cc1` [Compound 46, 6-(4-fluorophenyl)-5-(3-(trifluoromethyl)phenoxy)thiazolo[5,4-d]pyrimidin-7(6H)-one], the IC50 (read-out: IC50) was at most 100 nM.

With `CCn1cnc2c(=O)n(-c3ccc(F)cc3)c(Oc3c(F)cc(F)cc3F)nc21` [Compound 9, 9-ethyl-1-(4-fluorophenyl)-2-(2,4,6-trifluorophenoxy)-1,9-dihydro-6H-purin-6-one], the IC50 (read-out: IC50) was at most 100 nM.
